{
  "source": "ChEMBL document CHEMBL1201862",
  "about": "“PubChem BioAssay data set” (2004)",
  "experiment_in_all_cases": "growth of human tumour cells (NCI), 48 h",
  "key": {"786-0": {"tested_on": "786-0"}, "A549": {"tested_on": "A549"}, "ACHN": {"tested_on": "ACHN"}, "CAKI-1": {"tested_on": "CAKI-1"}, "CCRF-CEM": {"tested_on": "CCRF-CEM"}, "COLO 205": {"tested_on": "COLO 205"}, "DU-145": {"tested_on": "DU-145"}, "EKVX": {"tested_on": "EKVX"}, "HCC 2998": {"tested_on": "HCC 2998"}, "HCT-116": {"tested_on": "HCT-116"}, "HCT-15": {"tested_on": "HCT-15"}, "HOP-62": {"tested_on": "HOP-62"}, "HT-29": {"tested_on": "HT-29"}, "Hs-578T": {"tested_on": "Hs-578T"}, "IGROV-1": {"tested_on": "IGROV-1"}, "K562": {"tested_on": "K562"}, "KM12": {"tested_on": "KM12"}, "LOX IMVI": {"tested_on": "LOX IMVI"}, "M14": {"tested_on": "M14"}, "MCF7": {"tested_on": "MCF7"}, "MDA-MB-435": {"tested_on": "MDA-MB-435"}, "MDA-N": {"tested_on": "MDA-N"}, "MOLT-4": {"tested_on": "MOLT-4"}, "NCI-H23": {"tested_on": "NCI-H23"}, "NCI-H460": {"tested_on": "NCI-H460"}, "NCI-H522": {"tested_on": "NCI-H522"}, "NCI/ADR-RES": {"tested_on": "NCI/ADR-RES"}, "OVCAR-3": {"tested_on": "OVCAR-3"}, "OVCAR-5": {"tested_on": "OVCAR-5"}, "OVCAR-8": {"tested_on": "OVCAR-8"}, "PC-3": {"tested_on": "PC-3"}, "RPMI-8226": {"tested_on": "RPMI-8226"}, "SF-268": {"tested_on": "SF-268"}, "SF-295": {"tested_on": "SF-295"}, "SF-539": {"tested_on": "SF-539"}, "SK-MEL-28": {"tested_on": "SK-MEL-28"}, "SK-MEL-2": {"tested_on": "SK-MEL-2"}, "SK-MEL-5": {"tested_on": "SK-MEL-5"}, "SN12C": {"tested_on": "SN12C"}, "SNB-19": {"tested_on": "SNB-19"}, "SNB-75": {"tested_on": "SNB-75"}, "SR": {"tested_on": "SR"}, "SW-620": {"tested_on": "SW-620"}, "T47D": {"tested_on": "T47D"}, "TK-10": {"tested_on": "TK-10"}, "UACC-257": {"tested_on": "UACC-257"}, "UACC-62": {"tested_on": "UACC-62"}, "UO-31": {"tested_on": "UO-31"}},
  "note": "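Compound exposure: 48 hours, 5 concentrations, 96-well plates. At the GI50, growth is halved.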 Active and inactive are the calls of the source. Rule as the data show it: active = GI50 up to about 1.1 µM and inactive = higher.",
  "data": [
    {"smiles": "CC1C(c2ccc3c(c2)OCO3)c2cc3c(cc2OC1N1CCCC1)OCO3", "note": "(stereo not drawn)", "values": [
      {"measurement": "GI50", "setting": "786-0", "result": "45.5 µM (inactive)"},
      {"measurement": "GI50", "setting": "A549", "result": "31.3 µM (inactive)"},
      {"measurement": "GI50", "setting": "ACHN", "result": "29.3 µM (inactive)"},
      {"measurement": "GI50", "setting": "CAKI-1", "result": "11.6 µM (inactive)"},
      {"measurement": "GI50", "setting": "CCRF-CEM", "result": "26.4 µM (inactive)"},
      {"measurement": "GI50", "setting": "COLO 205", "result": "31.6 µM (inactive)"},
      {"measurement": "GI50", "setting": "DU-145", "result": "34.1 µM (inactive)"},
      {"measurement": "GI50", "setting": "EKVX", "result": "37.9 µM (inactive)"},
      {"measurement": "GI50", "setting": "HCC 2998", "result": "17.8 µM (inactive)"},
      {"measurement": "GI50", "setting": "HCT-116", "result": "18 µM (inactive)"},
      {"measurement": "GI50", "setting": "HCT-15", "result": 30, "unit": "µM"},
      {"measurement": "GI50", "setting": "HOP-62", "result": "49.5 µM (inactive)"},
      {"measurement": "GI50", "setting": "HT-29", "result": "31 µM (inactive)"},
      {"measurement": "GI50", "setting": "Hs-578T", "result": "10.6 µM (inactive)"},
      {"measurement": "GI50", "setting": "IGROV-1", "result": "30.3 µM (inactive)"},
      {"measurement": "GI50", "setting": "K562", "result": "24.4 µM (inactive)"},
      {"measurement": "GI50", "setting": "KM12", "result": "37.7 µM (inactive)"},
      {"measurement": "GI50", "setting": "LOX IMVI", "result": "34.8 µM (inactive)"},
      {"measurement": "GI50", "setting": "M14", "result": "25.5 µM (inactive)"},
      {"measurement": "GI50", "setting": "MCF7", "result": "33.1 µM (inactive)"},
      {"measurement": "GI50", "setting": "MDA-MB-435", "result": "5.52 µM (inactive)"},
      {"measurement": "GI50", "setting": "MDA-N", "result": "16.1 µM (inactive)"},
      {"measurement": "GI50", "setting": "MOLT-4", "result": "27.4 µM (inactive)"},
      {"measurement": "GI50", "setting": "NCI-H23", "result": "38.7 µM (inactive)"},
      {"measurement": "GI50", "setting": "NCI-H460", "result": "34.4 µM (inactive)"},
      {"measurement": "GI50", "setting": "NCI-H522", "result": "18 µM (inactive)"},
      {"measurement": "GI50", "setting": "NCI/ADR-RES", "result": "29.2 µM (inactive)"},
      {"measurement": "GI50", "setting": "OVCAR-3", "result": "25.8 µM (inactive)"},
      {"measurement": "GI50", "setting": "OVCAR-5", "result": "61.4 µM (inactive)"},
      {"measurement": "GI50", "setting": "OVCAR-8", "result": "35.8 µM (inactive)"},
      {"measurement": "GI50", "setting": "PC-3", "result": "32.9 µM (inactive)"},
      {"measurement": "GI50", "setting": "RPMI-8226", "result": "29.2 µM (inactive)"},
      {"measurement": "GI50", "setting": "SF-268", "result": "23.1 µM (inactive)"},
      {"measurement": "GI50", "setting": "SF-295", "result": "24 µM (inactive)"},
      {"measurement": "GI50", "setting": "SF-539", "result": "16.1 µM (inactive)"},
      {"measurement": "GI50", "setting": "SK-MEL-28", "result": "37.1 µM (inactive)"},
      {"measurement": "GI50", "setting": "SK-MEL-2", "result": "31.3 µM (inactive)"},
      {"measurement": "GI50", "setting": "SK-MEL-5", "result": "17.7 µM (inactive)"},
      {"measurement": "GI50", "setting": "SN12C", "result": "39.6 µM (inactive)"},
      {"measurement": "GI50", "setting": "SNB-19", "result": "20.9 µM (inactive)"},
      {"measurement": "GI50", "setting": "SNB-75", "result": "15.1 µM (inactive)"},
      {"measurement": "GI50", "setting": "SR", "result": "35.5 µM (inactive)"},
      {"measurement": "GI50", "setting": "SW-620", "result": "32.5 µM (inactive)"},
      {"measurement": "GI50", "setting": "T47D", "result": "35.4 µM (inactive)"},
      {"measurement": "GI50", "setting": "TK-10", "result": "24.9 µM (inactive)"},
      {"measurement": "GI50", "setting": "UACC-257", "result": "34.5 µM (inactive)"},
      {"measurement": "GI50", "setting": "UACC-62", "result": "53.6 µM (inactive)"},
      {"measurement": "GI50", "setting": "UO-31", "result": "17.2 µM (inactive)"}
    ]}
  ]
}
